# US11345681B1, “Inhibitors of fibroblast growth factor receptor kinases” (Kinnate Biopharma Inc., priority 2020, dated 2022)
# Biological target: Wild type FGFR2 (Homo sapiens (Human), UniProt P21802)
# Test: FGFR2 kinase assay (fluorescence-based microfluidic mobility shift assay)
# Type: biochemical
# Details: wild type FGFR2 0.06 nM, 100 μM ATP, 80 minutes at room temperature; class symbols
# Chain of Wild type FGFR2 (P21802 22-821): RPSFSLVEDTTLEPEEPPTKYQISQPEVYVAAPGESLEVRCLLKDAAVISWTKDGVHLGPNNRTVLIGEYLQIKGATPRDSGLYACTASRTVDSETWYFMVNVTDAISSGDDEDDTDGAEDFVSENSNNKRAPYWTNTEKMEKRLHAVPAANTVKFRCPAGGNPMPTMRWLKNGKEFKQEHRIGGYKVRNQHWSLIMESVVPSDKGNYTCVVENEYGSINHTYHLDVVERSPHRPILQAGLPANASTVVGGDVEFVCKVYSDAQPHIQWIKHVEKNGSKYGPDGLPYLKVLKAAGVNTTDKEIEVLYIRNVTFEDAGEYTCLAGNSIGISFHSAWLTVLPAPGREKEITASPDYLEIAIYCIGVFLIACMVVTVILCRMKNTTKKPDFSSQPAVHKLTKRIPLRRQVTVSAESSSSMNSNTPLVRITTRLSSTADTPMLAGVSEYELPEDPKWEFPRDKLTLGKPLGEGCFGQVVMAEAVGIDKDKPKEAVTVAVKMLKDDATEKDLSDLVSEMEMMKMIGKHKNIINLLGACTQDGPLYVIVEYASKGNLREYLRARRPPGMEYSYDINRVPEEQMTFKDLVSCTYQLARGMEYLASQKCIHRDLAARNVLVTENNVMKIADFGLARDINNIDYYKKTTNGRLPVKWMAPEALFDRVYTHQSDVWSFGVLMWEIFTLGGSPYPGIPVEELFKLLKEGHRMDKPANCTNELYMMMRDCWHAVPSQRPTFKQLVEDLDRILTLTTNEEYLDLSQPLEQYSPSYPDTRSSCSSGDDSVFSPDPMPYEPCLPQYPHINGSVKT
row,Compound,IC50 [nM]
1,"C=CC(=O)N1C[C@@H](n2cc(C#Cc3cc(F)c4c(c3)ncn4C)c(C(N)=O)c2NC)C[C@@H]1COC [Example 121, 1-((3S,5S)-1-Acryloyl-5-(methoxymethy)pyrrolidin-3-yl)-3-((7-fluoro-1-methyl-1H-benzo[d]imidazol-5-yl)ethynyl)-5-(methylamino)-1H-pyrazole-4-carboxamide]",≤ 100
2,"C=CC(=O)N1C[C@@H](n2nc(C#Cc3cn4ncnc4cc3F)c(C(N)=O)c2NC)C[C@@H]1COC [Example 122, 3-(2-[7-Fluoro-[1,2,4]triazolo[1,5-a]pyridin-6-yl]ethynyl)-1-[(3S,5R)-5-(methoxymethyl)-1-(prop-2-enoyl)pyrrolidin-3-yl]-5-(methylamino)pyrazole-4-carboxamide]",100 to 1000
3,"C=CC(=O)N1C[C@@H](n2nc(C#Cc3cc4nc(C)n(C)c4c(F)c3F)c(C(N)=O)c2NC)C[C@@H]1COC [Example 127, 3-[2-(6,7-Difluoro-1,2-dimethyl-1,3-benzodiazol-5-yl)ethynyl]-1-[(3S,5R)-5-(methoxymethyl)-1-(prop-2-enoyl)pyrrolidin-3-yl]-5-(methylamino) pyrazole-4-carboxamide]",≤ 100
4,"C=CC(=O)N1C[C@@H](n2nc(C#Cc3cc4nc(C)n(C)c4c(F)c3Cl)c(C(N)=O)c2NC)C[C@@H]1COC [Example 128, 3-[2-(6-Chloro-7-fluoro-1,2-dimethyl-1,3-benzodiazol-5-yl)ethynyl]-1-[(3S,5R)-5-(methoxymethyl)-1-(prop-2-enoyl)pyrrolidin-3-yl]-5-(methylamino)pyrazole-4-carboxamide]",≤ 100
5,"C=C(F)C(=O)N1C[C@@H](n2nc(C#Cc3cc4ncn(CC)c4cc3Cl)c(C(N)=O)c2NC)C[C@@H]1COC [Example 129, 3-[2-(6-Chloro-1-ethyl-1,3-benzodiazol-5-yl)ethynyl]-1-[(3S,5R)-1-(2-fluoroprop-2-enoyl)-5-(methoxymethyl)pyrrolidin-3-yl]-5-(methylamino)pyrazole-4-carboxamide]",100 to 1000
6,"C=CC(=O)N1C[C@@H](n2nc(C#Cc3cc4ncnn4cc3F)c(C(N)=O)c2NC)C[C@@H]1COC [Example 130, 3-(2-[6-Fluoro-[1,2,4]triazolo[1,5-a]pyridin-7-yl]-ethynyl)-1-[(3S,5R)-5-(methoxymethyl)-1-(prop-2-enoyl)pyrrolidin-3-yl]-5-(methylamino)pyrazole-4-carboxamide]",≤ 100
7,"C=CC(=O)N1C[C@@H](n2nc(C#Cc3cc4nccn4cc3F)c(C(N)=O)c2NC)C[C@@H]1COC [Example 132, 1-((3S,5R)-1-Acryloyl-5-(methoxymethyl)pyrrolidin-3-yl)-3-((6-fluoroimidazo[1,2-a]pyridin-7-yl)ethynyl)-5-(methylamino)-1H-pyrazole-4-carboxamide]",≤ 100
8,"C=CC(=O)N1C[C@@H](n2nc(C#Cc3c(Cl)cc4c(nc(C)n4C)c3F)c(C(N)=O)c2NC)C[C@@H]1COC [Example 133, 3-[2-(6-Chloro-4-fluoro-1,2-dimethyl-1,3-benzodiazol-5-yl)ethynyl]-1-[(3S,5R)-5-(methoxymethyl)-1-(prop-2-enoyl)pyrrolidin-3-yl]-5-(methylamino)pyrazole-4-carboxamide]",≤ 100
9,"[2H]C([2H])([2H])OC[C@H]1C[C@H](n2nc(C#Cc3cc4ncn(CC)c4cc3Cl)c(C(N)=O)c2NC)CN1C(=O)C=C [Example 138, 1-((3S,5R)-1-acryloyl-5-((methoxy-d3)methyl)pyrrolidin-3-yl)-3-((6-chloro-1-ethyl-1H-benzo[d]imidazol-5-yl)ethynyl)-5-(methylamino)-1H-pyrazole-4-carboxamide]",≤ 100
10,"C=CC(=O)N1C[C@@H](n2nc(C#Cc3cc4ncn(C5CC5)c4c(F)c3Cl)c(C(N)=O)c2NC)C[C@@H]1COC [Example 147, 3-[2-(6-Chloro-1-cyclopropyl-7-fluoro-1,3-benzodiazol-5-yl)ethynyl]-1-[(3S,5R)-5-(methoxymethyl)-1-(prop-2-enoyl)pyrrolidin-3-yl]-5-(methylamino)pyrazole-4-carboxamide]",≤ 100
11,"C=CC(=O)N1C[C@@H](n2nc(C#Cc3cc4ncn(C)c4cc3F)c(C(N)=O)c2NC)C[C@@H]1CF [Example 148, 3-[2-(6-Fluoro-1-methyl-1,3-benzodiazol-5-yl)ethynyl]-1-[(3S,5R)-5-(fluoromethyl)-1-(prop-2-enoyl)pyrrolidin-3-yl]-5-(methylamino)pyrazole-4-carboxamide]",≤ 100
12,"C=CC(=O)N1C[C@@H](n2nc(C#Cc3c(F)c(F)c4c(nc(C)n4C)c3F)c(C(N)=O)c2NC)C[C@@H]1COC [Example 149, 1-[(3S,5R)-5-(Methoxymethyl)-1-(prop-2-enoyl)pyrrolidin-3-yl]-5-(methylamino)-3-[2-(4,6,7-trifluoro-1,2-dimethyl-1,3-benzodiazol-5-yl)ethynyl]pyrazole-4-carboxamide]",≤ 100
13,"C=CC(=O)N1C[C@@H](n2nc(C#Cc3cc4nc(C)n(C5CC5)c4cc3F)c(C(N)=O)c2NC)C[C@@H]1COC [Example 150, 3-[2-(1-Cyclopropyl-6-fluoro-2-methyl-1,3-benzodiazol-5-yl)ethynyl]-1-[(3S,5R)-5-(methoxymethyl)-1-(prop-2-enoyl)pyrrolidin-3-yl]-5-(methylamino)pyrazole-4-carboxamide]",≤ 100
14,"C=CC(=O)N1C[C@@H](n2nc(C#Cc3cc4ncn(C5CC5)c4c(F)c3F)c(C(N)=O)c2NC)C[C@@H]1COC [Example 151, 3-[2-(1-Cyclopropy-6,7-difluoro-1,3-benzodiazol-5-yl)ethynyl]-1-[(3S,5R)-5-(methoxymethyl)-1-(prop-2-enoyl)pyrrolidin-3-yl]-5-(methylamino)pyrazole-4-carboxamide]",≤ 100

# The remaining lines, values ahead:
row,IC50 [nM],Compound
1,≤ 100,"C=CC(=O)N1CC[C@H](n2nc(C#Cc3c(F)cc4c(ncn4CC)c3F)c(C(N)=O)c2NCCO)C1 [Example 123, 3-[2-(1-Ethyl-4,6-difluoro-1,3-benzodiazol-5-yl)ethynyl]-5-[(2-hydroxyethyl)amino]-1-[(3S)-1-(prop-2-enoyl)pyrrolidin-3-yl]pyrazole-4-carboxamide]"
2,≤ 100,"C=CC(=O)N1C[C@@H](n2nc(C#Cc3cc4ncn(CC)c4c(F)c3F)c(C(N)=O)c2NC)C[C@@H]1COC [Example 125, 3-[2-(1-Ethyl-6,7-difluoro-1,3-benzodiazol-5-yl)ethynyl]-1-[(3S,5R)-5-(methoxymethyl)-1-(prop-2-enoyl)pyrrolidin-3-yl]-5-(methylamino)pyrazole-4-carboxamide]"
3,≤ 100,"C=CC(=O)N1C[C@@H](n2nc(C#Cc3cc4ncn(CC)c4c(F)c3Cl)c(C(N)=O)c2NC)C[C@@H]1COC [Example 126, 3-[2-(6-Chloro-1-ethyl-7-fluoro-1,3-benzodiazol-5-yl)ethynyl]-1-[(3S,5R)-5-(methoxymethyl)-1-(prop-2-enoyl)pyrrolidin-3-yl]-5-(methylamino)pyrazole-4-carboxamide]"
4,≤ 100,"C=CC(=O)N1CC[C@H](n2nc(C#Cc3cc4ncn(C5CC5)c4cc3F)c(C(N)=O)c2NC)C1 [Example 136, 3-[2-(1-Cyclopropyl-6-fluoro-1,3-benzodiazol-5-yl)ethynyl]-5-(methylamino)-1-[(3S)-1-(prop-2-enoyl)pyrrolidin-3-yl]pyrazole-4-carboxamide]"
5,≤ 100,"CC#CC(=O)N1C[C@@H](n2nc(C#Cc3c(F)cc4c(ncn4CC)c3F)c(C(N)=O)c2NC)C[C@@H]1COC [Example 137, 1-[(3S,5R)-1-(but-2-ynoyl)-5-(methoxymethyl)pyrrolidin-3-yl]-3-[2-(1-ethyl-4,6-difluoro-1,3-benzodiazol-5-yl)ethynyl]-5-(methylamino)pyrazole-4-carboxamide]"
6,≤ 100,"C=CC(=O)N1CC[C@H](n2nc(C#Cc3cc4ncn(C)c4cc3F)c(C(N)=O)c2NC)C1 [Example 139, 3-[2-(6-Fluoro-1-methyl-1,3-benzodiazol-5-yl)ethynyl]-5-(methylamino)-1-[(3S)-1-(prop-2-enoyl)pyrrolidin-3-yl]pyrazole-4-carboxamide]"
7,≤ 100,"C=CC(=O)N1CC[C@H](n2nc(C#Cc3cc4ncn(CC)c4c(F)c3F)c(C(N)=O)c2NC)C1 [Example 140, 3-[2-(1-Ethyl-6,7-difluoro-1,3-benzodiazol-5-yl)ethynyl]-5-(methylamino)-1-[(3S)-1-(prop-2-enoyl)pyrrolidin-3-yl]pyrazole-4-carboxamide]"
8,≤ 100,"C=CC(=O)N1CC[C@H](n2nc(C#Cc3cc4ncn(CC)c4c(F)c3Cl)c(C(N)=O)c2NC)C1 [Example 141, 3-[2-(6-Chloro-1-ethyl-7-fluoro-1,3-benzodiazol-5-yl)ethynyl]-5-(methylamino)-1-[(3S)-1-(prop-2-enoyl)pyrrolidin-3-yl]pyrazole-4-carboxamide]"
9,≤ 100,"C=CC(=O)N1CC[C@H](n2nc(C#Cc3cc4ncn(C)c4c(F)c3Cl)c(C(N)=O)c2NC)C1 [Example 142, 3-[2-(6-Chloro-7-fluoro-1-methyl-1,3-benzodiazol-5-yl)ethynyl]-5-(methylamino)-1-[(3S)-1-(prop-2-enoyl)pyrrolidin-3-yl]pyrazole-4-carboxamide]"
10,≤ 100,"C=CC(=O)N1CC[C@H](n2nc(C#Cc3cc4ncn(CC)c4cc3F)c(C(N)=O)c2NC)C1 [Example 143, 3-[2-(1-Ethyl-6-fluoro-1,3-benzodiazol-5-yl)ethynyl]-5-(methylamino)-1-[(3S)-1-(prop-2-enoyl)pyrrolidin-3-yl]pyrazole-4-carboxamide]"
11,≤ 100,"C=CC(=O)N1CC[C@H](n2nc(C#Cc3cc4ncn(C)c4cc3Cl)c(C(N)=O)c2NC)C1 [Example 144, 3-[2-(6-Chloro-1-methyl-1,3-benzodiazol-5-yl)ethynyl]-5-(methylamino)-1-[(3S)-1-(prop-2-enoyl)pyrrolidin-3-yl]pyrazole-4-carboxamide]"
12,≤ 100,"C=CC(=O)N1CC[C@H](n2nc(C#Cc3cc4ncn(C)c4c(F)c3F)c(C(N)=O)c2NC)C1 [Example 145, 3-[2-(6,7-Difluoro-1-methyl-1,3-benzodiazol-5-yl)ethynyl]-5-(methylamino)-1-[(3S)-1-(prop-2-enoyl)pyrrolidin-3-yl]pyrazole-4-carboxamide]"
